The record followed here is patent US11180479B2 (HAPLOGEN GmbH, priority 2017, dated 2021).

As usually defined, the IC50 is the concentration that gives 50% inhibition. For orientation: EC50 means the concentration needed to bring the measured effect to its halfway point.

The target of experiment [1] is T1, PLA2G16 (Homo sapiens, UniProt P53816).
T1 construct: Hexa-His (N); made in house; host or cells: E. coli BL21(DE3)
T1 sequence (P53816 1-162): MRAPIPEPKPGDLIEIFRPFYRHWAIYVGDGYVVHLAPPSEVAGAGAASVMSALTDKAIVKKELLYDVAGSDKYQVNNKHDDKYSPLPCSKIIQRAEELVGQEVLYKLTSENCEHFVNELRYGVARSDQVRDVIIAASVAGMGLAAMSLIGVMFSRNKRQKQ
Description: Enzyme activity assay for PLA2G16 (Red/Green BODIPY PC-A2 fluorescence). Conditions: His-tagged PLA2G16, 4 min pre-incubation, compound 2 nM to 50 μM; first symbol in parentheses. Format: biochemical. In short, it runs like this: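 N-His human PLA2G16 was expressed in E. coli and Ni-NTA purified. Enzyme in 5 mM glutathione was preincubated 4 min with compound (2 nM–50 μM final), then Red/Green BODIPY PC-A2 in DOPC/DOPG/cholesterol vesicles was added (50 mM Tris pH 8.5, 100 mM NaCl). Fluorescence increase (ex 480/em 530 nm) over 10 min gave activity; IC50 came from nonlinear regression.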

The subject of experiment [2] is picornaviruses (CVB1, HRV-A2, HRV-A23, EV-68). Description: Anti-picornavirus cytopathic effect (CPE) reduction assay on HeLa H1 cells. Format: cell-based. Conditions: 48 h, category from averaging EC50 values of four picornaviruses (CVB1, HRV-A2, HRV-A23, EV68), second symbol in parentheses. The procedure, abridged:
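HeLa H1 cells pre-treated 2 h with serial compound dilutions in 2% FBS DMEM, then infected at an MOI giving full CPE in 2 days; after 48 h, viability by CellTiterBlue fluorescence (560/590 nm) normalised to infected and uninfected vehicle controls; EC50 by non-linear regression, averaged over the four viruses.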
For orientation: Damage to the host cells serves as the signal in cytopathic effect assays.

With `CCCNC(=O)C(=O)[C@H]1CNC(=O)[C@@H]1c1ccccc1` (racemic) [FP-18, Rac-2-oxo-2-[(3R,4S)-5-oxo-4-phenylpyrrolidin-3-yl]-N-propylacetamide], the IC50 in experiment [1] was < 1000 nM. Besides, in experiment [2], the concentration giving a half-maximal response (EC50) is 1000 to 10000 nM.

For `O=C(NCC1CC1)C(=O)[C@H]1CNC(=O)[C@@H]1c1ccccc1` (single isomer, unassigned) [FP-86], the IC50 in experiment [1] is < 1000 nM. In addition, in experiment [2], the EC50 was < 1000 nM.

In the case of `Cn1ncnc1CN1C[C@H](C(=O)C(=O)NC2CC2)[C@@H](Cc2ccccc2)C1=O` (racemic) [FP-42, Rac-2-[(3R,4R)-4-benzyl-1-[(1-methyl-1H-1,2,4-triazol-5-yl)methyl]-5-oxopyrrolidin-3-yl]-N-cyclopropyl-2-oxoacetamide], the 50% inhibitory concentration (IC50) in experiment [1] was < 1000 nM. Further, the EC50 in experiment [2] fell in the range of 1000 to 10000 nM.

For the molecule `O=C(NC1CC1)C(=O)[C@H]1CN(c2cccc(OCc3ccccc3)n2)C(=O)[C@@H]1Cc1ccccc1` (racemic) [FP-69, Rac-2-[(3R,4R)-4-benzyl-1-[6-(benzyloxy)pyridin-2-yl]-5-oxopyrrolidin-3-yl]-N-cyclopropyl-2-oxoacetamide], the concentration for half-maximal inhibition (IC50) in experiment [1] was < 1000 nM. The half-maximal effective concentration (EC50) in experiment [2] is < 1000 nM.

With `O=C(NC1CC1)C(=O)C1CC(=O)N(Cc2ccccc2)C1` (stereo not drawn) [FP-104, 2-(1-Benzyl-5-oxopyrrolidin-3-yl)-N-cyclopropyl-2-oxoacetamide], in experiment [1], the IC50 was < 1000 nM. Also, the EC50 in experiment [2] lay within 1000 to 10000 nM.

For `CC(F)(F)CNC(=O)C(=O)[C@H]1CN(c2cccc(OCc3ccccc3)n2)C(=O)[C@@H]1Cc1ccccc1` (racemic) [FP-73, Rac-2-[(3R,4R)-4-benzyl-1-[6-(benzyloxy)pyridin-2-yl]-5-oxopyrrolidin-3-yl]-N-(2,2-difluoropropyl)-2-oxoacetamide], the IC50 in experiment [1] is < 1000 nM. Also, the half-maximal effective concentration (EC50) in experiment [2] was < 1000 nM.

As for `O=C(NC1CC1)C(=O)[C@H]1CN(Cc2ccccc2)C(=O)[C@@H]1c1ccccc1` (racemic) [FP-99, Rac-2-[(3R,4S)-1-benzyl-5-oxo-4-phenylpyrrolidin-3-yl]-N-cyclopropyl-2-oxoacetamide], in experiment [1], the half-inhibitory concentration (IC50) was < 1000 nM. Also, the half-maximal effective concentration (EC50) in experiment [2] was in the range of 1000 to 10000 nM.

Consider `O=C(NC1CC1)C(=O)[C@H]1CN(CC(F)F)C(=O)[C@@H]1Cc1ccccc1` (racemic) [FP-49, Rac-2-[(3R,4R)-4-benzyl-1-(2,2-difluoroethyl)-5-oxopyrrolidin-3-yl]-N-cyclopropyl-2-oxoacetamide], for which the concentration for half-maximal inhibition (IC50) in experiment [1] is < 1000 nM. In addition, the concentration for a half-maximal effect (EC50) in experiment [2] is < 1000 nM.

Turning to `CC(C)CNC(=O)C(=O)[C@H]1CNC(=O)[C@@H]1c1ccccc1` (racemic) [FP-13, Rac-N-(2-methylpropyl)-2-oxo-2-[(3R,4S)-5-oxo-4-phenylpyrrolidin-3-yl]acetamide], the IC50 in experiment [1] is < 1000 nM. For the same molecule, the EC50 in experiment [2] is < 1000 nM.

With `CCCCNC(=O)C(=O)[C@H]1CNC(=O)[C@@H]1c1ccccc1` (racemic) [FP-103, Rac-N-butyl-2-oxo-2-[(3R,4S)-5-oxo-4-phenylpyrrolidin-3-yl]acetamide], the IC50 in experiment [1] is < 1000 nM. Moreover, the EC50 in experiment [2] is < 1000 nM.

As for `Cn1cc(N2C[C@H](C(=O)C(=O)NCC(C)(F)F)[C@@H](Cc3ccccc3)C2=O)cn1` (racemic) [FP-76, Rac-2-[(3R,4R)-4-benzyl-1-(1-methyl-1H-pyrazol-4-yl)-5-oxopyrrolidin-3-yl]-N-(2,2-difluoropropyl)-2-oxoacetamide], in experiment [1], the half-inhibitory concentration (IC50) was < 1000 nM. The EC50 in experiment [2] was < 1000 nM.

For the molecule `CCNC(=O)C(=O)[C@H]1CN(c2ncccn2)C(=O)[C@@H]1Cc1ccccc1` (racemic) [FP-59, Rac-2-[(3R,4R)-4-benzyl-5-oxo-1-(pyrimidin-2-yl)pyrrolidin-3-yl]-N-ethyl-2-oxo-acetamide], the IC50 in experiment [1] was < 1000 nM. The half-maximal effective concentration (EC50) in experiment [2] was in the range of 1000 to 10000 nM.

In the case of `O=C(NC1CC1)C(=O)[C@H]1CN(c2cncnc2)C(=O)[C@@H]1Cc1ccccc1` (racemic) [FP-54, Rac-2-[(3R,4R)-4-benzyl-5-oxo-1-(pyrimidin-5-yl)pyrrolidin-3-yl]-N-cyclopropyl-2-oxoacetamide], the concentration for half-maximal inhibition (IC50) in experiment [1] was < 1000 nM. Further, the 50% effective concentration (EC50) in experiment [2] is < 1000 nM.

Take `CC(C)CNC(=O)C(=O)[C@H]1CN(CC(=O)N(C)C)C(=O)[C@@H]1Cc1ccccc1` (racemic) [FP-44, Rac-2-[(3R,4R)-3-benzyl-4-{[(2-methylpropyl)carbamoyl]carbonyl}-2-oxopyrrolidin-1-yl]-N,N-dimethylacetamide]: the IC50 in experiment [1] is < 1000 nM. Moreover, the 50% effective concentration (EC50) in experiment [2] is < 1000 nM.

Regarding `CC(F)(F)CNC(=O)C(=O)[C@H]1CN(c2cncnc2)C(=O)[C@@H]1Cc1ccccc1` (racemic) [FP-56, Rac-2-[(3R,4R)-4-benzyl-5-oxo-1-(pyrimidin-5-yl)pyrrolidin-3-yl]-N-(2,2-difluoropropyl)-2-oxoacetamide], in experiment [1], the concentration for half-maximal inhibition (IC50) is < 1000 nM. For the same molecule, in experiment [2], the EC50 is < 1000 nM.

Take `N#CCCNC(=O)C(=O)[C@H]1CNC(=O)[C@@H]1Cc1ccccc1` (racemic) [FP-6, Rac-2-[(3R,4R)-4-benzyl-5-oxopyrrolidin-3-yl]-N-(2-cyanoethyl)-2-oxoacetamide]: the concentration for half-maximal inhibition (IC50) in experiment [1] was < 1000 nM. Further, the EC50 in experiment [2] is 1000 to 10000 nM.

On to `O=C(NC1CC1)C(=O)[C@H]1CN(c2cnccn2)C(=O)[C@@H]1Cc1ccccc1` (racemic) [FP-57, Rac-2-[(3R,4R)-4-benzyl-5-oxo-1-(pyrazin-2-yl)pyrrolidin-3-yl]-N-cyclopropyl-2-oxoacetamide], for which the half-maximal inhibitory concentration (IC50) in experiment [1] was < 1000 nM. The EC50 in experiment [2] is < 1000 nM.

On to `CC(F)(F)CNC(=O)C(=O)[C@H]1CN(c2cncnc2)C(=O)[C@@H]1Cc1ccccc1` (single isomer, unassigned) [FP-95], for which the IC50 in experiment [1] was < 1000 nM. In addition, the EC50 in experiment [2] is < 1000 nM.
